Experimental data taken from publication PMC12669040, “Tumour-specific STING agonist synthesis via a two-component prodrug system” (Nature Chemistry, 2025).
“And” between values parts separate entries of the source, which are not always exact repeats. Equal values may be shown once.

Assays:
[1] = Colorimetric alkylation rate constant assay with thiol N1; assay type: physicochemical; conditions: for remaining [A]: N1 from calibration curve (N1 in uM); for remaining [A] / remaining [B]: in µM
[2] = Colorimetric alkylation rate constant assay with TNB^2− as non-specific thiol; assay type: physicochemical; design: second-order: unit not given here; conditions: for remaining [B]: in µM
[3] = Time 2891 sec, [B]0 = 250, Replicates 1-3
[4] = Time 3071 sec, [B]0 = 250, Replicates 1-3
[5] = Time 3252 sec, [B]0 = 250, Replicates 1-3
[6] = Time 3433 sec, [B]0 = 250, Replicates 1-3
[7] = Time 3613 sec, [B]0 = 250, Replicates 1-3

- remaining [A] ([1]; Replicate 1, time 576 sec): 78.3846
- remaining [B] ([1]; Replicate 1, time 576 sec, [B]0 = 250): 224.265
- remaining [A] ([1]; Replicate 1, time 606 sec): 77.4156
- remaining [B] ([1]; Replicate 1, time 606 sec, [B]0 = 250): 223.296
- remaining [A] ([1]; Replicate 2, time 576 sec): 78.0283
- remaining [B] ([1]; Replicate 2, time 576 sec, [B]0=250): 224.887
- remaining [A] ([1]; Replicate 2, time 606 sec): 77.1496
- remaining [B] ([1]; Replicate 2, time 606 sec, [B]0=250): 224.008
- remaining [A] ([1]; Replicate 3, time 576 sec): 79.3863
- remaining [B] ([1]; Replicate 3, time 576 sec, [B]0=250): 224.839
- remaining [A] ([1]; Replicate 3, time 606 sec): 78.4394
- remaining [B] ([1]; Replicate 3, time 606 sec, [B]0=250): 223.892
- remaining [B] ([1]; time 0 sec, [B]0 = 250, replicates 1-3): 247.294 and 246.181 and 246.372
- remaining [B] ([1]; time 30 sec, [B]0 = 250, replicates 1-3): 245.834 and 244.471 and 245.125
- remaining [B] ([1]; time 60 sec, [B]0 = 250, replicates 1-3): 244.264 and 243.246 and 243.566
- remaining [B] ([1]; time 91 sec, [B]0 = 250, replicates 1-3): 243.074 and 241.878 and 242.29
- remaining [B] ([1]; time 121 sec, [B]0 = 250, replicates 1-3): 241.802 and 240.652 and 241.043
- remaining [B] ([1]; time 151 sec, [B]0 = 250, replicates 1-3): 240.639 and 239.37 and 239.711
- remaining [B] ([1]; time 182 sec, [B]0 = 250, replicates 1-3): 239.367 and 238.23 and 238.549
- remaining [B] ([1]; time 212 sec, [B]0 = 250, replicates 1-3): 238.15 and 237.033 and 237.472
- remaining [B] ([1]; time 242 sec, [B]0 = 250, replicates 1-3): 236.878 and 235.893 and 236.139
- remaining [B] ([1]; time 273 sec, [B]0 = 250, replicates 1-3): 235.688 and 234.696 and 235.147
- remaining [B] ([1]; time 303 sec, [B]0 = 250, replicates 1-3): 234.525 and 233.67 and 234.042
- remaining [B] ([1]; time 333 sec, [B]0 = 250, replicates 1-3): 233.361 and 232.444 and 232.88
- remaining [B] ([1]; time 364 sec, [B]0 = 250, replicates 1-3): 232.279 and 231.447 and 231.944
- remaining [B] ([1]; time 394 sec, [B]0 = 250, replicates 1-3): 231.17 and 230.25 and 230.782
- remaining [B] ([1]; time 424 sec, [B]0 = 250, replicates 1-3): 230.115 and 229.224 and 229.847
- remaining [B] ([1]; time 454 sec, [B]0 = 250, replicates 1-3): 228.924 and 228.283 and 228.77
- remaining [B] ([1]; time 485 sec, [B]0 = 250, replicates 1-3): 227.977 and 227.229 and 227.834
- remaining [B] ([1]; time 515 sec, [B]0 = 250, replicates 1-3): 226.922 and 226.203 and 226.814
- remaining [B] ([1]; time 545 sec, [B]0 = 250, replicates 1-3): 225.813 and 225.205 and 225.879
- remaining [B] ([2]; Replicate 1, 723 sec, [B]0 = 250): 243.209
- remaining [B] ([2]; Replicate 1, 903 sec, [B]0 = 250): 242.478
- remaining [B] ([2]; Replicate 1, 1084 sec, [B]0 = 250): 241.798
- remaining [B] ([2]; Replicate 1, 1265 sec, [B]0 = 250): 241.104
- remaining [B] ([2]; Replicate 1, 1445 sec, [B]0 = 250): 240.437
- remaining [B] ([2]; Replicate 1, 1626 sec, [B]0 = 250): 239.756
- remaining [B] ([2]; Replicate 1, 1806 sec, [B]0 = 250): 239.088
- remaining [B] ([2]; Replicate 1, 1988 sec, [B]0 = 250): 238.42
- remaining [B] ([2]; Replicate 1, 2168 sec, [B]0 = 250): 237.79
- remaining [B] ([2]; Replicate 1, 2349 sec, [B]0 = 250): 237.085
- remaining [B] ([2]; Replicate 1, 2530 sec, [B]0 = 250): 236.392
- remaining [B] ([2]; Replicate 1, 2710 sec, [B]0 = 250): 235.737
- remaining [B] ([2]; Replicate 2, 542 sec, [B]0=250): 242.118
- remaining [B] ([2]; Replicate 2, 723 sec, [B]0=250): 241.425
- remaining [B] ([2]; Replicate 2, 903 sec, [B]0=250): 240.732
- remaining [B] ([2]; Replicate 2, 1084 sec, [B]0=250): 240.077
- remaining [B] ([2]; Replicate 2, 1265 sec, [B]0=250): 239.371
- remaining [B] ([2]; Replicate 2, 1445 sec, [B]0=250): 238.754
- remaining [B] ([2]; Replicate 2, 1626 sec, [B]0=250): 238.023
- remaining [B] ([2]; Replicate 2, 1806 sec, [B]0=250): 237.355
- remaining [B] ([2]; Replicate 2, 1988 sec, [B]0=250): 236.687
- remaining [B] ([2]; Replicate 2, 2168 sec, [B]0=250): 236.019
- remaining [B] ([2]; Replicate 2, 2349 sec, [B]0=250): 235.377
- remaining [B] ([2]; Replicate 2, 2530 sec, [B]0=250): 234.722
- remaining [B] ([2]; Replicate 2, 2710 sec, [B]0=250): 234.041
- remaining [B] ([2]; Replicate 3, 723 sec, [B]0=250): 243.07
- remaining [B] ([2]; Replicate 3, 903 sec, [B]0=250): 242.352
- remaining [B] ([2]; Replicate 3, 1084 sec, [B]0=250): 241.558
- remaining [B] ([2]; Replicate 3, 1265 sec, [B]0=250): 240.878
- remaining [B] ([2]; Replicate 3, 1445 sec, [B]0=250): 240.248
- remaining [B] ([2]; Replicate 3, 1626 sec, [B]0=250): 239.542
- remaining [B] ([2]; Replicate 3, 1806 sec, [B]0=250): 238.786
- remaining [B] ([2]; Replicate 3, 1988 sec, [B]0=250): 238.244
- remaining [B] ([2]; Replicate 3, 2168 sec, [B]0=250): 237.513
- remaining [B] ([2]; Replicate 3, 2349 sec, [B]0=250): 236.921
- remaining [B] ([2]; Replicate 3, 2530 sec, [B]0=250): 236.215
- remaining [B] ([2]; Replicate 3, 2710 sec, [B]0=250): 235.51
- remaining [B] [2, 3]: 234.892 and 235.081 and 233.424
- remaining [B] [2, 4]: 234.187 and 234.35 and 232.743
- remaining [B] [2, 5]: 233.519 and 233.72 and 232.088
- remaining [B] [2, 6]: 232.889 and 233.04 and 231.445
- remaining [B] [2, 7]: 232.246
SMILES: O=C(CCl)N1CCOCC1 [Compound C4]
- second-order ([1]; Replicate 1, time 576 sec, second-order plot value): 0.001202
- second-order ([1]; Replicate 1, time 606 sec, second-order plot value): 0.001257
- second-order ([1]; Replicate 2, time 576 sec, second-order plot value): 0.001179
- second-order ([1]; Replicate 2, time 606 sec, second-order plot value): 0.00123
- second-order ([1]; Replicate 3, time 576 sec, second-order plot value): 0.001164
- second-order ([1]; Replicate 3, time 606 sec, second-order plot value): 0.001217
- second-order ([1]; time 0 sec, replicates 1-3): 0.0001443 and 0.0001055 and 0.0001506
- second-order ([1]; time 30 sec, replicates 1-3): 0.0001956 and 0.0001641 and 0.0002207
- second-order ([1]; time 60 sec, replicates 1-3): 0.0002611 and 0.0002284 and 0.000272
- second-order ([1]; time 91 sec, replicates 1-3): 0.0003157 and 0.0002781 and 0.0003304
- second-order ([1]; time 121 sec, replicates 1-3): 0.0003702 and 0.0003322 and 0.0003836
- second-order ([1]; time 151 sec, replicates 1-3): 0.0004294 and 0.0003825 and 0.0004404
- second-order ([1]; time 182 sec, replicates 1-3): 0.0004821 and 0.0004386 and 0.0004918
- second-order ([1]; time 212 sec, replicates 1-3): 0.0005317 and 0.0004932 and 0.0005467
- second-order ([1]; time 242 sec, replicates 1-3): 0.0005943 and 0.0005514 and 0.0005999
- second-order ([1]; time 273 sec, replicates 1-3): 0.0006417 and 0.0006068 and 0.0006568
- second-order ([1]; time 303 sec, replicates 1-3): 0.0006954 and 0.000662 and 0.0007064
- second-order ([1]; time 333 sec, replicates 1-3): 0.0007529 and 0.0007182 and 0.0007667
- second-order ([1]; time 364 sec, replicates 1-3): 0.0007999 and 0.0007714 and 0.0008167
- second-order ([1]; time 394 sec, replicates 1-3): 0.0008594 and 0.0008269 and 0.0008777
- second-order ([1]; time 424 sec, replicates 1-3): 0.000908 and 0.0008806 and 0.000931
- second-order ([1]; time 454 sec, replicates 1-3): 0.000965 and 0.0009423 and 0.0009806
- second-order ([1]; time 485 sec, replicates 1-3): 0.001015 and 0.0009923 and 0.001037
- second-order ([1]; time 515 sec, replicates 1-3): 0.001071 and 0.001049 and 0.001093
- second-order ([1]; time 545 sec, replicates 1-3): 0.001123 and 0.001109 and 0.001148
- second-order [2, 3]: 0.0007509 and 0.0006764 and 0.0006669
- second-order [2, 4]: 0.000786 and 0.0007119 and 0.0007036
- second-order [2, 5]: 0.0008202 and 0.000746 and 0.0007357
- second-order [2, 6]: 0.0008541 and 0.0007785 and 0.0007706
- second-order [2, 7]: 0.0008877 and 0.0008119 and 0.0008054
- second-order ([2]; Time 3794 sec, [B]0 = 250, Replicates 1-3): 0.0009231 and 0.0008424 and 0.0008418
- second-order ([2]; Time 3974 sec, [B]0 = 250, Replicates 1-3): 0.0009567 and 0.0008773 and 0.0008752
- second-order ([2]; Time 4155 sec, [B]0 = 250, Replicates 1-3): 0.00099 and 0.0009118 and 0.0009131
- second-order ([2]; Time 4336 sec, [B]0 = 250, Replicates 1-3): 0.001024 and 0.0009453 and 0.0009474
- second-order ([2]; Time 4516 sec, [B]0 = 250, Replicates 1-3): 0.00106 and 0.0009785 and 0.000984
- second-order ([2]; Time 4697 sec, [B]0 = 250, Replicates 1-3): 0.001096 and 0.001013 and 0.001019
- second-order ([2]; Time 4878 sec, [B]0 = 250, Replicates 1-3): 0.001128 and 0.001047 and 0.001054
- second-order ([2]; Time 5058 sec, [B]0 = 250, Replicates 1-3): 0.001163 and 0.00108 and 0.001089
- second-order ([2]; Time 5239 sec, [B]0 = 250, Replicates 1-3): 0.001202 and 0.001118 and 0.001125
- second-order ([2]; Time 5419 sec, [B]0 = 250, Replicates 1-3): 0.001235 and 0.001153 and 0.001158
- second-order ([2]; Time 5600 sec, [B]0 = 250, Replicates 1-3): 0.001269 and 0.001184 and 0.001195
- second-order ([2]; Time 5781 sec, [B]0 = 250, Replicates 1-3): 0.001306 and 0.001219 and 0.001231
- second-order ([2]; Time 5961 sec, [B]0 = 250, Replicates 1-3): 0.001339 and 0.001252 and 0.001269
